For experiment [1], the system named is Human Leukocyte Lipoxygenase. Put plainly: Human Leukocyte Lipoxygenase Assay (LDA-H). In kind it is biochemical. The method, then:
Whole blood is collected from normal volunteers and spun in a refrigerated centrifuge for four minutes at 1°-6° C. at 3800 g. The buffy coat is manually separated and washed twice with chilled 0.83% NH4 Cl and centrifuged at 1000 RPM for ten minutes at 4° C. The white cell is suspended in culture media-EMEM supplemented with 6% Agamma human serum, tricine buffer, and neomycin and recentrifuged at 1000 g to yield a pellet containing the leukocytes used for the preparation of the acetone pentane powder.
The acetone-pentane powder is prepared utilizing a modification of the procedure reported for human platelet lipoxygenase. See Siegel, et al, Arachidonate Metabolism via Lipoxygenase and 12-L-hydro-peroxy-5 Eicosatetraenoic Acid Peroxidase Sensitive to Antiinflammatory Drugs, Proc. Natl. Acad. Sci., U.S.A. 77:308, 1980 and D. P. Wallach and V. R. Brown, A Novel Preparation of Human Platlet Lipoxygenase, Biochem. Biophys. Acta. 663:361, 1981. Buffy coat prepared above is resuspended in 5-7 volumes of cold 0.1M Tris buffer, pH 7.4 containing 0.154M NaCl. The suspension is centrifuged at 13,300 g for ten minutes at 4° C. The resultant pellet is retained, resuspended in five volumes of cold acetone, recentrifuged at 13,300 g and resuspended in five volumes of cold pentane. The pentane suspension is centrifuged for ten minutes at 13,300 g to give a pellet which is dried in the cold under vacuum with periodic pulverization. The dry powder is stable for several weeks when stored at -80° C.
Enzyme stock solution is prepared in the following manner. About 15 mg of the acetone-pentane powder is suspended in 4 ml of cold tris buffer (0.1M, pH 7.4), allowed to stand for five minutes, and homogenized thoroughly. The homogenate is sonicated three times for 15 seconds each time, diluted to 7 ml with cold tris buffer (0.1M, pH 7.4), and centrifuged at 4° C. for 60 minutes at 13,300 g. The supernatent is retained and diluted to a total of 10 ml with cold tris buffer (0.1M, pH 7.4) to give the stock enzyme solution. Additional dilutions of 2-50 fold are done as necessary to locate optimal enzyme reaction rate in the assay described below.
Substrate solution is prepared at 100 μM or 1.0 μM concentrations of arachidonic acid or linoleic acid in 0.1M tris buffer, pH 9.0 containing 20% ethanol.
The enzyme reaction is followed spectrophotometrically by the appearance of a conjugated diene product at 234 nm. The reaction is monitored at 24° C. using a Gilford Model 2600 spectrophotometer. […] The effects of inhibitors on the reaction are compared with control reactions run under indentical conditions. Routinely, each compounds of the present invention is incubated with the enzyme for five minutes prior to addition of substrate to initiate the reaction. Inhibition expressed as IC50 as molar concentration of the compound required to reduce reaction rate to 50% control.

The target in experiment [2] is T1, leukotriene receptor (Cavia porcellus, UniProt Q2NNR5).
T1 construct: Two pairs of lungs (1.3 g) from freshly sacrificed 300 g male guinea pigs; tissue Kuiper Rabbit Farm, Gary, Ind; (animals); host or cells: guinea pig lung, crude membranes
T1 sequence (Q2NNR5 1-340): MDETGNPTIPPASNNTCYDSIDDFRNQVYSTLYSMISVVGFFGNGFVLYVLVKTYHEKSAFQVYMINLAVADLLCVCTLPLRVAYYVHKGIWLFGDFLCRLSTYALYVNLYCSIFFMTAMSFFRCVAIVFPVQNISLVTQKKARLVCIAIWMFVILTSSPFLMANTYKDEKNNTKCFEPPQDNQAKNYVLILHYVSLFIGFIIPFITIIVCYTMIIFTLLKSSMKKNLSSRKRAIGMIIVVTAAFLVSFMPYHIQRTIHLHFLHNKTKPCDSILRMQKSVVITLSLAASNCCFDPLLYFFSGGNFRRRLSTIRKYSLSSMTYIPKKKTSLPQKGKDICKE
Put plainly: Binding of 3H-Leukotriene D4 to Guinea Pig Lung Membranes (RBL). The method, then: Additionally, the activity, of the compounds having the Formula I of the present invention is determined by the well known leukotriene receptor binding assay that is described by R. F. Bruns, W. J. Thomsen and T. A. Pugsley in Life Sciences, 33, 645 (1983) or the Herxheimer in vivo antiallergy test described in H. Herxheimer, J. Physiol. (London), Vol. 177, p. 251 (1952).
[14,15-^3 H]leukotriene D4 (^3 H-LTD4) (25 Ci/mmol and 40 Ci/mmol) is purchased from New England Nuclear. Unlabeled LTC4 is a gift of Ono Pharmaceuticals (Japan). LTC4, LTD4, and LTE4 are purchased as methyl esters from Paesel GmbH (Frankfurt, W. Germany). Concentrations of the Paesel leukotrienes are calculated from their absorbance at 280 nm. Leukotriene esters are saponified overnight under N2 in 3.3% potassium carbonate at room temperature. Tritiated leukotrienes are stored as received from New England Nuclear at -20° C. Ono LTC4 (5 μg/ml) is stored at -60° C. in phosphate buffer pH - 6.8. Saponified Paesel leukotrienes are stored at -60° C. in 3.3% potassium carbonate (pH 9.0-9.5). Aliquots of leukotrienes are taken from stock solutions immediately after thawing, after which the stock solutions are immediately refrozen. 2-Amino-2-(hydroxymethyl)-1,3-propanediol (Tris) is Sigma pH 7.7 pre-set crystals, and dimethylsulfoxide is Aldrich Gold Label. Preparation of crude lung membranes
Two pairs of lungs (1.3 g) from freshly sacrificed 300 g male guinea pigs (older animals gave substantially lower binding) from Kuiper Rabbit Farm, Gary, Ind. are disrupted with a Polytron PT 10 (setting 4) for 30 seconds in 20 ml ice-cold 50 mM Tris adjusted with HCl to pH 7.7 at 25° C. (Tris buffer), filtered through a single layer of gauze to remove connective tissue, and centrifuged at 50,000 xg for ten min. The pellet is resuspended by homogenization with a Polytron in 20 ml Tris buffer, centrifuged at 50,000 xg for ten min., resuspended, incubated at 37° C. for 30 minutes, and centrifuged again. The final pellet is resuspended in Tris buffer and either used fresh or stored at -70° C.
All incubations are in triplicate for 60 minutes at 25° C. in 12×75 mm polystyrene tubes containing 1 ml Tris buffer with 20 mg original tissue wet weight of guinea pig lung membranes, 0.2 nM ^3 H-LTD4 (6,000-11,000 cpm), 10 mM MgCl2, and 1% dimethylsulfoxide. Leukotrienes are diluted in Tris buffer. All other test compounds dissolved at 10 mM in dimethylsulfoxide on the same day as the experiment, and diluted in dimethylsulfoxide to 100× the final incubation concentration. Control incubations receive an equal volume (10 μl) of dimethylsulfoxide; the resulting concentration of dimethylsulfoxide had no effect on binding. ^3 H-LTD4 is diluted to 2 nM in Tris buffer. The membrane suspension (20 mg/0.89 ml) contains sufficient MgCl2 to give 10 mM final concentration in the incubation. […] All additions are performed at 0° C. Immediately after the last addition, the incubation is initiated by agitating the rack of tubes on a vortex mixer and warming to 25° C. in a water bath. Tubes are vortexed at least once more during the incubation to ensure that the membranes remained suspended. Incubations are terminated after 60 minutes by filtering under reduced pressure through 25 mm Whatman GF/B filters followed by rapid washing three times with 4 ml of ice-cold Tris buffer. Filters are added to scintillation vials with 8 ml Formula 947 (New England Nuclear), left overnight, shaken, and the radioactivity counted in a scintillation counter (efficiency 40%). Nonspecific binding, defined as binding of ^3 H-LTD4 in the presence of 100 nM LTC4, is 300-500 cpm for all lots of ^3 H-LTD4. Binding to the filters in the absence of tissue is about 100 cpm, and is not affected by unlabeled LTC4. Specific binding, defined as total binding minus nonspecific binding, varied considerably from lot to lot of ^3 H-LTD4. […]

Where “and” joins values, the source holds several entries; their conditions need not be identical. Identical values can stand only once.

Turning to `O=C(Nc1ccc(CCc2cc(O)c(O)c(O)c2)cc1)C1=C(O)c2ccccc2S(=O)(=O)C1` [Example 36], the “LDAH, % Inhibition” value in experiment [1] (2.50 E -5 M) turned out to be 0.0%. The “RBL, % Inhibition” value in experiment [2] (1.00 E -4 M) is 78.0% and 81.0%; in experiment [2] (1.00 E -5 M), 7.0%; in experiment [2] (2.00 E -5 M) it was 27.0%; in experiment [2] (2.00 E -6 M), 6.0%; in experiment [2] (3.15 E -5 M), 80.0%; in experiment [2] (5.00 E -5 M), 59.0%. For the same compound, the “RBL, % Inhibition” value in experiment [2] (5.00 E -6 M) was determined as 3.0%.

Turning to `O=C(Nc1ccc(CCc2ccc(Cl)cc2)cc1)C(=O)c1sc2ccccc2c1O` [Example 137, Benzo[b]thiophene-2-acetamide, N-[4-[2-(4-chlorophenyl)ethyl]phenyl]-3-hydroxy-α-oxo], the “RBL, % Inhibition” value in experiment [2] (1.00 E -4 M) worked out at 12.0%.

Take `O=C(Nc1ccc(CCc2ccc(Cl)cc2)cc1)c1sc2ccccc2c1O` [Example 145, Benzo[b]thiophene-2-carboxamide, N-[4-[2-(4-chlorophenyl)ethyl]phenyl]-3-hydroxy]: the “RBL, % Inhibition” value in experiment [2] (1.00 E -4 M) stood at 30.0%.

Take `CCCCCCCCCCc1ccc(NC(=O)C(=O)c2sc3ccc(Cl)cc3c2O)cc1` [Example 135, Benzo[b]thiophene-2-acetamide, 5-chloro-N-(4-decylphenyl)-3-hydroxy-α-oxo]: the “RBL, % Inhibition” value in experiment [2] (1.00 E -4 M) was 43.0%.

Regarding `CN(C)c1ccc(CCc2ccc(NC(=O)C3CS(=O)(=O)c4ccccc4C3=O)cc2)cc1` (stereo not shown) [Example 55], the “RBL, % Inhibition” value in experiment [2] (1.00 E -5 M) is given as 6.0%; in experiment [2] (1.00 E -6 M), 5.0%; in experiment [2] (2.00 E -5 M), 12.0%; in experiment [2] (2.00 E -6 M), 10.0%; in experiment [2] (5.00 E -5 M) it was 11.0%; in experiment [2] (5.00 E -6 M), 13.0%.

Take `COc1ccc(CCc2ccc(NC(=O)C(=O)c3sc4ccc(Cl)cc4c3O)cc2)cc1OC` [Example 139, Benzo[b]thiophene-2-acetamide, 5-chloro-N-[4-[2-(3,4-dimethox-yphenyl)ethyl]phenyl]-3-hydroxy-α-oxo]: the “RBL, % Inhibition” value in experiment [2] (1.00 E -4 M) worked out at 25.0%.

With `O=C(O)c1ccc(CCc2ccc(NC(=O)C3CS(=O)(=O)c4ccccc4C3=O)cc2)cc1` (stereo not shown) [Example 12, 4-[2-[4-[[(3,4-Dihydro-4-oxo-2H-1-benzothiopyran-3-yl)carbonyl]amino]phenyl]ethyl]benzoic acid, 1,1-dioxide], the “RBL, % Inhibition” value in experiment [2] (1.00 E -4 M) was 0.0%.

For `O=C(Nc1ccc(CCc2ccccc2O)cc1)C1=C(O)c2ccccc2S(=O)(=O)C1` [Example 38], the “LDAH, % Inhibition” value in experiment [1] (2.50 E -5 M) and in experiment [1] (8.00 E -5 M) was 0.0% throughout. In experiment [2] (0.2 nM 3H-LTD4, guinea pig lung membranes, 60 min, 25 °C, read-out: RBL, concentration for 50% inhibition (IC)), the IC50 was determined as 26.5 µM.

Source of the values: patent US4921871A, “Enolamides, pharmaceutical compositions and methods of use thereof for treating inflammation” (Warner-Lambert Company, priority 1987, dated 1990).
